Laboratory results from patent publication US20240246916A1, “7-NITRO-8-HYDROXYQUINOLINE DERIVATIVES, PREPARATION METHOD THEREFORE AND MEDICAL USE THEREOF” (Jiangsu Yahong Meditech Co., Ltd., priority 2021, published 2024).
Converted amounts (≈) assume the structure as drawn.

Legend:
Format in all cases: cell-based
[1] = tested on: Endothelial cell line HUVEC; assay: Inhibitory activity on cells, CellTiter-Glo viability, HUVEC; conditions: Homo sapiens, 72 hours treatment
Outline: (§1)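 24 h attachment; HUVEC 2000, UM-UC-3/RM-1 3000, LNCaP 5000 cells/well. 8-pt 2.5× dilution from 100 μmol, 72 h, 37 °C/5% CO2. CellTiter-Glo; IC50 from curve fit; max = cells + DMSO vehicle, min = medium only.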

[2] = tested on: Bladder cancer cell line UM-UC-3; assay: Inhibitory activity on cancer cells, CellTiter-Glo viability, UM-UC-3; conditions: Homo sapiens, UMUC3, 72 hours treatment
Outline: as §1

[3] = tested on: Prostate cancer cell line LNcaP; assay: Inhibitory activity on cancer cells, CellTiter-Glo viability, LNcaP; conditions: Homo sapiens, 72 hours treatment
Outline: as §1

[4] = tested on: Mouse prostate cancer cell line RM1; assay: Inhibitory activity on cancer cells, CellTiter-Glo viability, RM1; conditions: 72 hours treatment
Outline: as §1

[5] = tested on: Escherichia coli (carbapenem-resistant clinical isolate; ATCC25922); assay: MIC by micro broth dilution (CLSI), Escherichia coli; conditions: Escherichia coli; for MIC50 / MIC90: ATCC25922, Clinical strain; for MIC50: read-out: MIC50; for MIC90: read-out: MIC90; for MIC: Standard strain ATCC25922, read-out: MIC
Outline: (§2)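 Duplicate same-patient isolates are excluded and quality control strains are run alongside. Inoculum prepared by direct colony suspension to 0.5 McFarland then diluted 100-fold to reach 10^5 CFU/mL in CAMHB. Drug spans 128 to 0.06 mg/L; incubation lasts 20 hours at 35±2° C.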

[6] = tested on: Acinetobacter baumannii (carbapenem-resistant clinical isolates; ATCC19606); assay: MIC by micro broth dilution (CLSI), Acinetobacter baumannii; conditions: Acinetobacter baumannii; for MIC50 / MIC90: ATCC19606, Clinical strain; for MIC50: read-out: MIC50; for MIC90: read-out: MIC90; for MIC: Standard strain ATCC19606, read-out: MIC
Outline: as §2

[7] = tested on: Staphylococcus aureus (methicillin-resistant and sensitive clinical isolates; ATCC29213); assay: MIC by micro broth dilution (CLSI), Staphylococcus aureus; conditions: for MIC50 / MIC90: Clinical strain; for MIC50: read-out: MIC50; for MIC90: read-out: MIC90; for MIC: Standard strain ATCC29213, read-out: MIC
Outline: as §2

[8] = MIC by micro broth dilution (CLSI), Klebsiella pneumoniae; conditions: for MIC50 / MIC90: Standard strain; for MIC: Standard strain ATCC43816
Source text: The test bacteria were one strain of clinically isolated carbapenem-resistant Escherichia coli, two strains of carbapenem-resistant Acinetobacter baumannii, two strains of methicillin-resistant Staphylococcus aureus, two strains of sensitive Staphylococcus aureus, and 7 strains of Klebsiella pneumoniae. Duplicate strains isolated from the same patient were eliminated. There were also […] quality control strains Escherichia coli ATCC25922, Acinetobacter baumannii ATCC19606, Staphylococcus aureus ATCC29213, Klebsiella pneumoniae ATCC BAA-1705, ATCC 43816, ATCC BAA-2472, ATCC-BAA-1898, ATCC-BAA-1899, NCTC 13440 and ATCC-BAA-2470. There were 24 strains in total.
According to the recommendations of relevant documents of the American Clinical and Laboratory Standards Institute (CLSI), the micro broth dilution method was used to determine the MIC of the compounds of the present invention against clinically isolated strains. • 3.1 Formulation of antibacterial drug: All the compounds of the present invention were dissolved in DMSO. The drug concentration range was 128 mg/L to 0.06 mg/L. • 3.2 Culture medium: The drug susceptibility test used cation adjusted Mueller-Hinton broth (CAMHB). • 3.3 Amount of inoculum: The test bacteria cultured overnight were adjusted to 0.5 McFarland turbidity by the direct colony suspension method, and diluted 100 folds, the final inoculum amount was 10^5 CFU/mL. • 3.4 Culture conditions: The test bacteria were cultured at 35±2° C. for 20 hours in air.
The drug susceptibility test results were interpretated by reference to CLSI 2019 M100 29th edition criteria.
The quality control strains of the drug susceptibility test were Escherichia coli ATCC 25922, Acinetobacter baumannii ATCC 19606, Staphylococcus aureus ATCC 29213, Klebsiella pneumoniae ATCC BAA-1705, ATCC 43816, ATCC BAA-2472, ATCC-BAA-1898, ATCC-BAA-1899, NCTC 13440 and ATCC-BAA-2470.
The results of drug susceptibility test were statistically analyzed by WHONET software (version 5.6).

Compound | IC50 [2] [µM] | IC50 [3] [µM] | IC50 [4] [µM] | MIC50 [5] [µg/mL] | MIC90 [5] [µg/mL] | MIC [5] [µg/mL] | MIC50 [6] [µg/mL] | MIC90 [6] [µg/mL] | MIC [6] [µg/mL] | MIC50 [7] [µg/mL] | MIC90 [7] [µg/mL] | MIC50 [8] [µg/mL] | MIC90 [8] [µg/mL] | MIC [8] [µg/mL] | MIC [7] [µg/mL] | IC50 [1] [µM]
O=[N+]([O-])c1cc(I)c2cccnc2c1O [Example 3, 5-Iodo-7-nitroquinolin-8-ol] | – | – | – | – | – | – | > 64 | > 64 | – | – | – | > 64 | > 64 | – | – | –
O=[N+]([O-])c1ccc2ccc(F)nc2c1O [Example 5, 2-Fluoro-7-nitroquinolin-8-ol] | – | – | – | 32 (≈ 154 µM) | 32 (≈ 154 µM) | – | > 64 | > 64 | – | 64 (≈ 307 µM) | 64 (≈ 307 µM) | > 64 | > 64 | – | – | –
Cc1ccc2ccc([N+](=O)[O-])c(O)c2n1 [Example 6, 2-Methyl-7-nitroquinolin-8-ol] | – | – | – | 64 (≈ 313 µM) | 64 (≈ 313 µM) | – | > 64 | > 64 | – | 64 (≈ 313 µM) | 64 (≈ 313 µM) | > 64 | > 64 | – | – | –
Cc1cnc2c(O)c([N+](=O)[O-])ccc2c1 [Example 8, 3-Methyl-7-nitroquinolin-8-ol] | 3.77 | 9.3 | 3.18 | 4 (≈ 19.6 µM) | 4 (≈ 19.6 µM) | – | 8 (≈ 39.2 µM) | 16 (≈ 78.4 µM) | – | 8 (≈ 39.2 µM) | 8 (≈ 39.2 µM) | 32 (≈ 157 µM) | 32 (≈ 157 µM) | – | – | 5.7
O=[N+]([O-])c1ccc2c(C3CC3)ccnc2c1O [Example 11, 4-Cyclopropyl-7-nitroquinolin-8-ol] | 2.71 | 1.67 | 3.42 | 8 (≈ 34.7 µM) | 128 (≈ 556 µM) | > 128 | 16 (≈ 69.5 µM) | 128 (≈ 556 µM) | > 128 | 8 (≈ 34.7 µM) | 8 (≈ 34.7 µM) | 64 (≈ 278 µM) | 64 (≈ 278 µM) | – | 4 (≈ 17.4 µM) | 2.97
O=[N+]([O-])c1ccc(O)c2ncccc12 [Nitroxoline, nitroxoline, reference compound] | 9.2 | 5.1 | 4.3 | 8 (≈ 42.1 µM) | 16 (≈ 84.1 µM) | 4 (≈ 21 µM) | 4 (≈ 21 µM) | 4 (≈ 21 µM) | 2 (≈ 10.5 µM) | 4 (≈ 21 µM) | 4 (≈ 21 µM) | 8 (≈ 42.1 µM) | 16 (≈ 84.1 µM) | 4 (≈ 21 µM) | 4 (≈ 21 µM) | 4.5

Second part, led by results:

IC50 [2] [µM] | IC50 [3] [µM] | IC50 [4] [µM] | MIC50 [5] [µg/mL] | MIC90 [5] [µg/mL] | MIC [5] [µg/mL] | MIC50 [6] [µg/mL] | MIC90 [6] [µg/mL] | MIC [6] [µg/mL] | MIC50 [7] [µg/mL] | MIC90 [7] [µg/mL] | MIC50 [8] [µg/mL] | MIC90 [8] [µg/mL] | MIC [8] [µg/mL] | MIC [7] [µg/mL] | Compound | IC50 [1] [µM]
9.33 | 10.9 | 8.13 | 16 (≈ 84.1 µM) | 16 (≈ 84.1 µM) | 8 (≈ 42.1 µM) | 4 (≈ 21 µM) | 8 (≈ 42.1 µM) | 16 (≈ 84.1 µM) | 4 (≈ 21 µM) | 4 (≈ 21 µM) | 16 (≈ 84.1 µM) | 64 (≈ 337 µM) | 8 (≈ 42.1 µM) | – | O=[N+]([O-])c1ccc2cccnc2c1O [Example 1, 7-Nitroquinolin-8-ol] | 14.9
3.88 | 5.97 | – | 16 (≈ 78.4 µM) | 64 (≈ 313 µM) | 8 (≈ 39.2 µM) | 8 (≈ 39.2 µM) | 8 (≈ 39.2 µM) | – | 4 (≈ 19.6 µM) | 4 (≈ 19.6 µM) | 32 (≈ 157 µM) | 64 (≈ 313 µM) | – | – | Cc1cc2cccnc2c(O)c1[N+](=O)[O-] [Example 2, 6-Methyl-7-nitroquinolin-8-ol] | 7.06
– | – | – | > 64 | > 64 | – | > 64 | > 64 | – | > 64 | > 64 | 64 (≈ 297 µM) | > 64 | – | – | N#Cc1cc([N+](=O)[O-])c(O)c2ncccc12 [Example 9, 8-Hydroxy-7-nitroquinoline-5-carbonitrile] | –
– | – | – | 32 (≈ 157 µM) | 32 (≈ 157 µM) | – | 32 (≈ 157 µM) | 64 (≈ 313 µM) | – | 16 (≈ 78.4 µM) | 16 (≈ 78.4 µM) | > 64 | > 64 | – | – | Cc1ccnc2c(O)c([N+](=O)[O-])ccc12 [Example 10, 4-Methyl-7-nitroquinolin-8-ol] | –
